These results are taken from patent US8258116B2, “Combination therapy for the treatment of HCV infection” (Vertex Pharmaceuticals Incorporated, priority 2007, dated 2012).

Assay type in all cases: cell-based
Test [1] concerns HCV replicon cells (wild-type clone 24-2, Huh-7). The experiment in a line: 2-day Replicon assay with bDNA quantitation, checkerboard combination (Bliss independence / MacSynergy). Conditions: VX-950 in the checkerboard experiment with the named polymerase inhibitor, read-out: VX-950 IC50. On the procedure:
Huh-7 cells were propagated in Dulbecco's modified Eagle's medium (DMEM, JRH Biosciences, Lenexa, Kans.) supplemented with 10% heat-inactivated FBS (fetal bovine serum), 2 mM L-glutamine, and nonessential amino acids (JRH). The cells were transfected with an in vitro transcribed HCV replicon RNA identical to replicon 1377neo/NS3-3′/wt as described by Lohmann et al. (1999). Stable cell clones were selected and maintained in the presence of 250 μg/mL G418 (Invitrogen, Carlsbad, Calif.). One of the clones, 24-2, was used as the wild-type in the subsequent HCV replicon assays for combination studies. The HCV NS3 protease variant replicons were constructed in the background of the mADE wild-type replicon as described previously [Chao Lin et al., “In Vitro Resistance Studies of Hepatitis C Virus Serine Protease Inhibitors, VX-950 and BILN 2061: Structural Analysis Indicates Different Resistance Mechanisms,” Journal of Biological Chemistry, 279(17); pp. 17508-17514 (2004)]. The replicon cells were propagated in DMEM supplemented with 10% FBS, 2 mM L-glutamine, nonessential amino acids, and 250 μg/mL G418. The cells were split twice per week in fresh media upon reaching confluence. There are approximately 200-300 copies of HCV RNA per 24-2 replicon cell.
(§1) HCV replicon RNA from cells was measured using the Quantigene Discover XL kit (Panomics Inc., Fremont Calif.) as per the manufacturer's instructions. Briefly, compound-treated replicon cells were lysed and immobilized on to capture plates using HCV specific oligonucleotides (designed based on the 5′ UTR region of HCV 1b genome sequence AJ238799 in the GenBank database) over night and the relative amounts of captured RNA was measured using oligonucleotide probe sets as per the manufacturer's instructions.
(§2) On the day prior to the assay, 10,000 replicon cells were plated per well of a 96-well plate and allowed to attach and grow overnight in DMEM (Invitrogen, Carlsbad, Calif.) supplemented with 10% heat-inactivated FBS (JRH Biosciences, Lenexa, Kans.), 2 mM L-glutamine (Invitrogen), nonessential amino acids (Invitrogen) and 250 μg/ml G418 (Invitrogen). Next day, the medium was removed and antiviral agents that were serially diluted in DMEM containing 2% FBS and 0.5% DMSO (Sigma Chemical Co., St. Louis, Mo.) without G418, was added. The replicon cells were incubated with the antiviral agents for 48 h. HCV replicon RNA from cells was measured using the Quantigene Discover XL kit (Panomics Inc., Fremont Calif.) as per the manufacturer's instructions. Briefly, compound-treated replicon cells were lysed and immobilized onto capture plates using HCV specific oligonucleotides overnight and the relative amounts of captured RNA was measured using oligonucleotide probe sets as per the manufacturer's instructions. Unless indicated otherwise, each data point represents the average of three replicates. The IC50 is the concentration of the compound at which the HCV replicon RNA level in cells is reduced by 50% as compared to the untreated replicon cell controls. To monitor the effect of compounds on cell proliferation or cell viability, replicon cells were treated with serially diluted compounds for 48 h, after which cell viability was determined using a CellTiter Glo assay (Promega, Madison, Wis.). Each CC50 is derived from at least two replicates and is the concentration of the compound at which the number of viable cells is reduced by 50% as compared to untreated cell controls. The IC50 and CC50 was determined using 4-parameter curve fitting in the SoftMax Pro program (Molecular Devices, Sunnyvale, Calif.).
The effects of drug-drug combinations were evaluated using the Bliss independence model [W. R. Greco et al., “The search for synergy: a critical review from a response surface perspective,” Pharmacol. Rev., 47, pp. 331-385 (1995)]. The experimental data were analyzed by using MacSynergy, a three-dimensional analytical method developed by Prichard and Shipman [M. N. Prichard and C. […]

The test system of test [2] is HCV replicon Wild Type (mADE). Nature of the test: 2-Day HCV Replicon IC50 Assay, wild type replicon. Conditions: Wild Type replicon. On the procedure: (§3) Huh-7 cells were propagated in Dulbecco's modified Eagle's medium (DMEM, JRH Biosciences, Lenexa, Kans.) supplemented with 10% heat-inactivated FBS (fetal bovine serum), 2 mM L-glutamine, and nonessential amino acids (JRH). The cells were transfected with an in vitro transcribed HCV replicon RNA identical to replicon 1377neo/NS3-3′/wt as described by Lohmann et al. (1999). Stable cell clones were selected and maintained in the presence of 250 μg/mL G418 (Invitrogen, Carlsbad, Calif.). […] The HCV NS3 protease variant replicons were constructed in the background of the mADE wild-type replicon as described previously [Chao Lin et al., “In Vitro Resistance Studies of Hepatitis C Virus Serine Protease Inhibitors, VX-950 and BILN 2061: Structural Analysis Indicates Different Resistance Mechanisms,” Journal of Biological Chemistry, 279(17); pp. 17508-17514 (2004)]. The replicon cells were propagated in DMEM supplemented with 10% FBS, 2 mM L-glutamine, nonessential amino acids, and 250 μg/mL G418. The cells were split twice per week in fresh media upon reaching confluence. There are approximately 200-300 copies of HCV RNA per 24-2 replicon cell.
as §1, §2
(§4) The sensitivity of NS3 protease variants to ribavirin and interferon was assessed in a 2-Day HCV Replicon IC50 Assay.

Test [3] relates to HCV NS3 protease variant replicon R155K. Nature of the test: microbe, parasite or virus in culture. As to the method:
as §3, §1, §2, §4

For test [4], the system named is HCV NS3 protease variant replicon T54A. Nature of the test: microbe, parasite or virus in culture. On the procedure: as §3, §1, §2, §4
Test [5] deals with HCV NS3 protease variant replicon V36A. Nature of the test: microbe, parasite or virus in culture. On the procedure:
as §3, §1, §2, §4

Test [6] has as its system HCV NS3 protease variant replicon V36M+R155K. Nature of the test: microbe, parasite or virus in culture. Conditions: V36M-R155K; ratio of mutant IC50 to Wild type IC50 for the same inhibitor. As to the method: as §3, §1, §2, §4
For test [7], the system named is HCV NS3 protease variant replicon V36M. Nature of the test: microbe, parasite or virus in culture. As to the method:
as §3, §1, §2, §4

Test [8] relates to HCV NS3 protease variant replicon A156T. Nature of the test: 2-Day HCV Replicon IC50 Assay, A156T. As to the method:
as §3, §1, §2, §4

The test system of test [9] is HCV NS3 protease variant replicon A156V. Nature of the test: 2-Day HCV Replicon IC50 Assay, A156V. On the procedure: as §3, §1, §2, §4
The mark [10] stands for this setting: Hepatitis C virus, read-out: Avg. IC50 ± STDEV.

Read-outs that look alike come from different tables or passages of the source.

As for `CCC[C@H](NC(=O)[C@@H]1[C@H]2CCC[C@H]2CN1C(=O)[C@@H](NC(=O)[C@@H](NC(=O)c1cnccn1)C1CCCCC1)C(C)(C)C)C(=O)C(=O)NC1CC1` [VX-950], the 50% inhibitory concentration (IC50) was 0.31 µM in test [1] (Hepatitis C virus, Huh-7, 48 h); 0.42 µM in [1] (48 h, with polymerase inhibitor of Formula I); 0.34 µM in [1] (48 h, with polymerase inhibitor of Formula II); 0.46 ± 0.101 µM in test [2] (Hepatitis C virus, Table 8, read-out: Avg. IC50 ± STDEV); 3.59 ± 0.283 µM in test [3] (setting [10]); 3.04 ± 0.819 µM in [4] (setting [10]). For the same molecule, the IC50 was 3.57 ± 1.05 µM in [5] (setting [10]), 3.38 ± 0.775 µM in test [7] (setting [10]), above 30 µM in test [8] (setting [10]) and above 30 µM in test [9] (setting [10]). Further, the “Fold Change” value is on record as 1 ± 0.2 in [2] (ratio of IC50 to Wild type IC50 for the same inhibitor); 7.8 ± 0.6 in [3] (R155K, ratio of mutant IC50 to Wild type IC50 for the same inhibitor); 6.6 ± 1.8 in test [4] (T54A, ratio of mutant IC50 to Wild type IC50 for the same inhibitor); 7.7 ± 2.3 in test [5] (V36A, ratio of mutant IC50 to Wild type IC50 for the same inhibitor); “≧65.2” in test [6]; 7.3 ± 1.7 in test [7] (V36M, ratio of mutant IC50 to Wild type IC50 for the same inhibitor). Besides, the “Fold Change” value in test [8] (A156T, ratio of mutant IC50 to Wild type IC50 for the same inhibitor) is on record as above 65.2; in test [9] (A156V, ratio of mutant IC50 to Wild type IC50 for the same inhibitor), above 65.2.
